The values below come from article PMC5956019, “A rapid solution-based method for determining the affinity of heroin hapten-induced antibodies to heroin, its metabolites, and other opioids” (Analytical and Bioanalytical Chemistry, 2018).

The target in data set [1] is 6-AmHap-Abs. The format is binding, mouse. To be noted: for Ki: read-out: Heterologous MST Ki; for IC50: read-out: Heterologous MST IC50. The method, then: The final concentrations of 6-AmHap-Abs, MorHap-Cy5 in the capillaries were 10 nM and 0.25 nM, respectively. The same procedure was performed for the binding of the 6-AmHap-Abs to the other drugs but different concentrations of competitor working solutions were used.
For the heroin-binding assay in the presence of esterase inhibitors, a working solution containing 6-AmHap antibody (40 nM) and 80 μM iso-OMPA/80 μM BNPP was incubated for 2 h at RT. An equal volume of MorHap-Cy5 (1 nM) was then mixed with the 6-AmHap-Abs/iso-OMPA/BNPP mixture and the reaction mixture was further incubated for 20 min in the dark at RT. The rest of the procedure was performed as described above. The final concentrations of 6-AmHap-Abs, iso-OMPA/BNPP, and MorHap-Cy5 in the capillaries were 10 nM, 20 μM/20 μM, and 0.25 nM, respectively.
(§1) The MST measurements were done on a Monolith™ NT.115^Pico instrument from NanoTemper Technologies GmbH. The instrument was equipped with an IR laser (wavelength, 1475 ± 15 nm; power, 120 mW maximum) and a red fluorescence channel that can detect red dyes, such as Cy5 and Alexa Fluor 647. The samples were measured at an LED power of 20% and an MST power of 25% with a laser-on time of 30 s and a laser-off time of 5 s. MST measurements of 15–16 samples typically take ~ 20 min.
In the competition MST procedures, a constant concentration of MorHap-Cy5:antibody complex was titrated with an increasing concentration of drug competitor. […] The software plots Fnorm against 15–16 increasing drug competitor concentration points to yield the binding curve, and subsequently fits the curve to obtain the IC50. For presentation purposes, the fraction bound was manually calculated and plotted using the equation above where x is the Fnorm at a given competitor concentration. The binding affinities (Ki) from the heterologous MST assays were then derived using the Ki-Finder software from the Nanotemper website. In order to calculate the Ki, the following parameters must be entered into the Ki-Finder website: the binding affinity of the tracer against the antibody (Kd), the concentration of the antibody (I0), the concentration of the tracer (labeled T0), the highest concentration of the competitor (L0), and the IC50 of the competitor to the antibody. The website then plots both the binding curve and competition curve to produce the competitor Ki, also known as the Kd of the antibody to the drug competitor.

Data set [2] deals with 6-AmHap-Abs. To be noted: ref Sulima et al [3]; read-out: Competition ELISA Homologous, IC50; cited from earlier work.
Data set [3] deals with 6-AmHap-Abs. The data set is classed as binding, mouse. To be noted: read-out: Competition ELISA Heterologous, IC50.
For data set [4] the following is noted: degradation of heroin in humans, Fig. 1a; cited from earlier work.
In data set [5] the target is Anti-morphine antibody (ab1060). The format is binding, mouse. To be noted: 0.25 nM MorHap-Cy5, 10 nM ab1060, 4000 nM competitor. How it is done: as §1
In the competition MST procedures, a constant concentration of MorHap-Cy5:antibody complex was titrated with an increasing concentration of drug competitor. […] The software plots Fnorm against 15–16 increasing drug competitor concentration points to yield the binding curve, and subsequently fits the curve to obtain the IC50. For presentation purposes, the fraction bound was manually calculated and plotted using the equation above where x is the Fnorm at a given competitor concentration. The binding affinities (Ki) from the heterologous MST assays were then derived using the Ki-Finder software from the Nanotemper website. […]

Data set [6] has as its target 6-AmHap-Abs. The format is binding, mouse. To be noted: read-out: Kd of 6-AmHap-Abs derived from ED-UPLC/MS/MS; post-immune serum diluted 1:1600, 5 nM D3-tracer.
Description: Post-immune sera (week 8) from the mouse study described by Sulima et al. [12] were used in this study. […] Briefly, post-immune serum was diluted in DPBS (1:1600). Dialysis buffer was prepared by diluting the corresponding pre-immune serum (week 0) in DPBS (1:1600). […] A 100-μL dilution of week 8 serum containing 5 nM D3-tracer was pipetted into the sample chamber, and a 300-μL aliquot of the competitive inhibitor solution was added to the buffer chamber. Both week 8 and week 0 were run against each other at the same sera dilutions. For negative controls, the same setup was employed except both sides of the dialysis chamber contained only week 0 serum. Equilibrium dialysis, preparation of samples for UPLC/MS/MS, and calculation of Kd were performed as described [13].
The antibody binding site concentration was derived from Müller’s equation [17] and was calculated using the following formula: Abt=bTt+b×Kd/1−b where [Abt] is the total concentration of the antibody binding sites, b is the fraction of bound D3-tracer in the absence of competitive inhibitor, [Tt] is the total molar concentration of the D3-tracer after equilibrium, and Kd is the apparent dissociation constant.
The mark [7] stands for this setting: 0.25 nM MorHap-Cy5, 10 nM antibody binding sites, without esterase inhibitors, […].
Where [8] appears, read: 0.25 nM MorHap-Cy5, 10 nM antibody binding sites, without esterase inhibitors.

Read-outs that look alike come from different tables or passages of the source.

With `C=CCN1CC[C@]23c4c5ccc(O)c4O[C@H]2[C@@H](O)C=C[C@H]3[C@H]1C5` [Nalorphine, nalorphine], at 6-AmHap-Abs [1] (setting [7]), the inhibitory constant (Ki) is 0.00293 ± 0.00098 µM. Further, the IC50 in the data set on 6-AmHap-Abs [1] (setting [8]) was found to be 0.0106 ± 0.00089 µM.

Turning to `CN1CC[C@]23c4c5ccc(O)c4O[C@H]2C(=O)CC[C@@]3(O)[C@H]1C5` [Oxymorphone, oxymorphone], the figures for the IC50 with 6-AmHap-Abs [2], in the data set with 6-AmHap-Abs [1] (setting [8]) and with 6-AmHap-Abs [3] were 125 ± 28.6 µM, 0.5981 ± 0.00095 µM and 2.43 ± 0.864 µM, respectively. The Ki at 6-AmHap-Abs [1] (setting [7]) stood at 0.251 ± 0.007 µM.

For the compound `C[N+]1([O-])CC[C@]23c4c5ccc(O)c4O[C@H]2[C@@H](O)C=C[C@H]3[C@H]1C5` (stereo partly drawn) [Morphine N-Oxide, morphine N-oxide], on 6-AmHap-Abs [1] (setting [7]), the Ki was 6.46 ± 4.78 µM. Further, the IC50 in the data set with 6-AmHap-Abs [1] (setting [8]) was 12.651 ± 0.00133 µM.

For the compound `CN1CC[C@]23c4c5ccc(O)c4O[C@H]2[C@@H](O[C@@H]2O[C@H](C(=O)O)[C@@H](O)[C@H](O)[C@H]2O)C=C[C@H]3[C@H]1C5` [M-6G, morphine-6-β-glucuronide], the 50% inhibitory concentration (IC50) in the data set on 6-AmHap-Abs [2] is 25 ± 12.1 µM; with 6-AmHap-Abs [1] (setting [8]), 0.00588 ± 0.00122 µM; with 6-AmHap-Abs [3], 0.0113 ± 0.00216 µM. Further, on 6-AmHap-Abs [1] (setting [7]), the Ki stood at 0.00066 ± 0.0009 µM. Also, in data set [4], the t1/2 was 4.60 h.

Regarding `CN1CC[C@]23CCCC[C@H]2[C@H]1Cc1ccc(O)cc13` [Levorphanol, levorphanol], the IC50 in the data set on 6-AmHap-Abs [2] was 3.39 ± 0.9 µM; in the data set on 6-AmHap-Abs [1] (setting [8]), 0.0337 ± 0.00091 µM; in the data set with 6-AmHap-Abs [3] it was 0.341 ± 0.138 µM. The Ki at 6-AmHap-Abs [1] (setting [7]) was found to be 0.0116 ± 0.00441 µM.

Regarding `Oc1ccc2c3c1O[C@H]1[C@@H](O)C=C[C@H]4[C@@H](C2)NCC[C@@]341` [Normorphine, normorphine], the figures for the IC50 in the data set with 6-AmHap-Abs [2], in the data set on 6-AmHap-Abs [1] (setting [8]) and in the data set on 6-AmHap-Abs [3] were 112 ± 22.3 µM, 0.136 ± 0.00094 µM and 3.22 ± 2 µM, respectively. Moreover, the Ki on 6-AmHap-Abs [1] (setting [7]) was determined as 0.0551 ± 0.00758 µM.

On to `CC(=O)Nc1ccccc1` [Acetanilide, acetanilide], for which the “Heterologous MST IC50” value in the data set on 6-AmHap-Abs [1] (setting [8]) is “No binding”. Also, the “Heterologous MST Ki” value at 6-AmHap-Abs [1] (setting [7]) is recorded as “No binding”; at 6-AmHap-Abs [1] (0.25 nM MorHap-Cy5, 10 nM antibody binding sites, without esterase inhibitors, […], listed as acetanilide), “Neither acetanilide nor N-methylpiperidine bound”.

Take `CN1CC[C@]23c4c5ccc(O)c4O[C@H]2[C@H](NC(=O)CCSCC(N)=O)C=C[C@H]3[C@H]1C5` [MorHap-acetamide]: in data set [5], the inhibitory constant (Ki) came out at 0.014 ± 0.00797 µM.

For `CN1CC[C@]23c4c5ccc(O)c4O[C@H]2CCC[C@H]3[C@H]1C5` [Desomorphine, desomorphine], in the data set with 6-AmHap-Abs [1], the IC50 worked out at 0.00907 ± 0.00073 µM and the Ki worked out at 0.0009 ± 0.00064 µM.

Regarding 6-acetylmorphine [6-AM], at 6-AmHap-Abs [6], the Kd was found to be 0.00053 ± 0.00028 µM. The figures for the IC50 with 6-AmHap-Abs [2], with 6-AmHap-Abs [1] (setting [8]) and in the data set with 6-AmHap-Abs [3] were 3.72 ± 0.7 µM, 0.00675 ± 0.00117 µM and 0.0198 ± 0.00633 µM, respectively. The Ki at 6-AmHap-Abs [1] (setting [7]) is 0.00044 ± 0.00033 µM. Besides, the t1/2 in data set [4] was 0.367 to 0.433 h.

As for `COC1=CC=C2[C@H]3Cc4ccc(OC)c5c4[C@@]2(CCN3C)[C@H]1O5` [Thebaine, thebaine], the Ki on 6-AmHap-Abs [1] (setting [7]) was 0.0131 ± 0.00547 µM. Also, in the data set on 6-AmHap-Abs [1] (setting [8]), the IC50 was determined as 0.0356 ± 0.00091 µM.

Regarding `CN1CC[C@]23c4c5ccc(O[C@@H]6O[C@H](C(=O)O)[C@@H](O)[C@H](O)[C@H]6O)c4O[C@H]2[C@@H](O)C=C[C@H]3[C@H]1C5` [M-3G, morphine-3-β-glucuronide], the IC50 in the data set on 6-AmHap-Abs [2] was 28 ± 11.4 µM; with 6-AmHap-Abs [1] (setting [8]) it was 0.0691 ± 0.00124 µM; with 6-AmHap-Abs [3], 0.0232 ± 0.00733 µM. The Ki at 6-AmHap-Abs [1] (setting [7]) was found to be 0.0279 ± 0.00414 µM. The t1/2 in data set [4] is 4.5 h.

In the case of `CN1CCCCC1` [N-Methylpiperidine, N-methylpiperidine], the “Heterologous MST IC50” value with 6-AmHap-Abs [1] (setting [8]) is listed as “No binding”. Further, the “Heterologous MST Ki” value on 6-AmHap-Abs [1] (setting [7]) is listed as “No binding”; at 6-AmHap-Abs [1] (0.25 nM MorHap-Cy5, 10 nM antibody binding sites, without esterase inhibitors, […], listed as N-methylpiperidine), “Neither acetanilide nor N-methylpiperidine bound”.

With `CN1CC[C@]23c4c5ccc(O)c4O[C@H]2[C@@H](O)C=C[C@H]3[C@H]1C5O` (stereo partly drawn) [10-Hydroxymorphine, 10-hydroxymorphine], the Ki on 6-AmHap-Abs [1] (setting [7]) was determined as 0.0185 ± 0.00578 µM. The IC50 in the data set on 6-AmHap-Abs [1] (setting [8]) turned out to be 0.0512 ± 0.00072 µM.
